Test results taken from patent US8163907B2, “Dihydropyridine calcium antagonist compounds, preparation methods, and medical uses thereof” (Cosunter Pharmaceutical Company, priority 2008, dated 2012).
Counter-ions that a name gives are not always drawn.

Test system: isolated rat's thoracic aorta ring
Test: Contraction of an isolated rat's thoracic aorta ring caused by KCl (vascular relaxation)
Format: cell-based
Details: 80 mmol/L KCl, n=6; for IC50: isolated rat thoracic aorta ring with complete endodermis, read-out: IC50, inhibition of contraction of a vascular ring with complete endodermis caused by KCl
Excerpt: The effect of compounds of the present invention to the contraction of an isolated rat's thoracic aorta ring caused by KCl is described as follows:
The present invention synthesizes 21 new DHP compounds, and some of the compounds are selected for performing pharmacological tests. With reference to Comparison of vasodilatation effect between quercetin and rutin in the isolated rat thoracic aorta authored by ZHOU Xin-mei, YAO Hui, XIA Man-li, et al, and published in Journal of Zhejiang University: Medical Sciences, 2006, 35(1), 29-33 for an embodiment.
A male SD rat, 240-260 g, supplied by Institute of Laboratory Animal Breeding and Reproduction, Qing Long Shan of Jiang Ning. Certificate of Quality No.: SCXK (So) 2002-0018.
NaCl:118.3 mmol/L, KCl:4.7 mmol/L, CaCl2: 2.5 mmol/L, MgSO4.7H2O:1.2 mmol/L, KH2PO4:1.2 mmol/L, NaHCO3:25 mmol/L, and glucose:11.1 mmol/L.
Hit a male rat at its head until it faints. Quickly remove the thoracic aorta, and put it into a K-H solution passed with a mixed gas having 95% O2+5% CO2. Carefully remove connective tissues around the thoracic aorta and cut the blood vessel into a vascular ring of 3 mm wide. Avoid any excessive pulling to prevent damages to the endodermis. Hang the vascular ring into a bathing trough containing 30 ml of K-H liquid, and keep passing the mixed gas of 95% O2+5% CO2, and maintain the temperature at 37±0.5[…]. Adjust the rest tension to 2.0 g. Keep it in equilibrium for 2 hrs, and change the liquid once every 15 min.
Inspection of the activity of the endodermis of the blood vessel: After the thoracic aorta ring is stable, change the liquid once, and add 1 μmol/L of NA into the bathing trough. After the contraction has reached the peak value for 15 min., add 1 μmol/L of Ach. If the expected contraction of the vascular relaxation is greater than 60% after Ach is added, then the endodermis is considered to be complete, or else the endodermis will be damaged.
A thoracic aorta ring with a complete endodermis is selected for conducting the experiment. After the changed liquid is stable, Add 80 mmol/L KCl to induce the maximum contraction amplitude, sequentially accumulate the medications, such that the medicine concentrations are 0.05 μmol/L, 0.1 μmol/L, 0.5 μmol/L, 1 μmol/L, 2 μmol/L, 4 μmol/L, and 10 μmol/L respectively. Record the change of tensions. The vascular relaxation level is indicated by the inhibition rate. In other words, KCl induces a difference of values between the maximum tension of the contraction and the vascular tension after medicines with different concentrations are added. The ratio of differences of the values to the maximum contraction amplitude induced by KCl reflects the level of vascular relaxation. The sample size of the arota rings for each medicine group is 6. In other words, the experiment is performed repeatedly for 6 times.

[1] = Rattus norvegicus, 0.1 μmol/L, x±S, read-out: Inhibition Rate (%)
[2] = Rattus norvegicus, 0.5 μmol/L, x±S, read-out: Inhibition Rate (%)
[3] = Rattus norvegicus, 1 μmol/L, x±S, read-out: Inhibition Rate (%)
[4] = Rattus norvegicus, 2 μmol/L, x±S, read-out: Inhibition Rate (%)
[5] = Rattus norvegicus, 4 μmol/L, x±S, read-out: Inhibition Rate (%)

| Molecule | IC50 | inhibition at 0.1 µM [1] | inhibition at 0.5 µM [2] | inhibition at 1 µM [3] | inhibition at 2 µM [4] | inhibition at 4 µM [5] | inhibition at 10 µM (Rattus norvegicus, 10 μmol/L, x±S, read-out: Inhibition Rate (%)) | Inhibition Rate (%) (0.1 μmol/L, x±S) | Inhibition Rate (%) (0.5 μmol/L, x±S) | Inhibition Rate (%) (1 μmol/L, x±S) | Inhibition Rate (%) (2 μmol/L, x±S) | Inhibition Rate (%) (4 μmol/L, x±S) | Inhibition Rate (%) (10 μmol/L, x±S) | inhibition at 0.05 µM (Rattus norvegicus, 0.05 μmol/L, x±S, read-out: Inhibition Rate (%)) |
| --- | --- | --- | --- | --- | --- | --- | --- | --- | --- | --- | --- | --- | --- | --- |
| COC(=O)C1=C(C)NC(C)=C(C(=O)OCCCN2CCN(CCOc3ccccc3OC)CC2)C1c1cccc([N+](=O)[O-])c1 (stereo not drawn) [Compound I4, 1,4-dihydro-2,6-dimethyl-4-(3-nitrophenyl)-3,5-pyridinecarboxylic acid methyl ester 3-(N-4-(2-(2-methoxyphenoxy)ethyl)piperazinyl)propyl ester hydrochloride] | 2 µM | 13.2 ± 1.3% | 20.5 ± 2.2% | 33.8 ± 2.8% | 59.4 ± 4% | 62.4 ± 4.8% | 72 ± 4.7% |  |  |  |  |  |  |  |
| COC(=O)C1=C(C)NC(C)=C(C(=O)OCCCCN2CCN(CCOc3ccccc3OC)CC2)C1c1cccc([N+](=O)[O-])c1.Cl (stereo not drawn) [Compound I5, 1,4-dihydro-2,6-dimethyl-4-(3-nitrophenyl)-3,5-pyridinecarboxylic acid methyl ester-4-(N-4-(2-(2-methoxyphenoxy)ethyl)piperazinyl)butyl ester hydrochloride] | 0.5 µM |  |  |  |  |  |  | 24.5 ± 3.2% | 47.9 ± 3.9% | 66.0 ± 4.0% | 75.0 ± 3.5% | 91.6 ± 3.2% | 100.1 ± 3.0% |  |
| Levamlodipine Besylate [reference compound] | 4.1 µM |  |  |  |  |  |  | 4.5 ± 0.6% | 18.4 ± 2.6% | 37.7 ± 3.6% | 46.8 ± 4.1% | 69.0 ± 5.9% | 84.6 ± 6.1% |  |

More lines, main results first:

| IC50 | Molecule | inhibition at 0.1 µM [1] | inhibition at 0.5 µM [2] | inhibition at 1 µM [3] | inhibition at 2 µM [4] | inhibition at 4 µM [5] | inhibition at 10 µM (Rattus norvegicus, 10 μmol/L, x±S, read-out: Inhibition Rate (%)) | Inhibition Rate (%) (0.1 μmol/L, x±S) | Inhibition Rate (%) (0.5 μmol/L, x±S) | Inhibition Rate (%) (1 μmol/L, x±S) | Inhibition Rate (%) (2 μmol/L, x±S) | Inhibition Rate (%) (4 μmol/L, x±S) | Inhibition Rate (%) (10 μmol/L, x±S) | inhibition at 0.05 µM (Rattus norvegicus, 0.05 μmol/L, x±S, read-out: Inhibition Rate (%)) |
| --- | --- | --- | --- | --- | --- | --- | --- | --- | --- | --- | --- | --- | --- | --- |
| 1.9 µM | COC(=O)C1=C(C)NC(C)=C(C(=O)OCCN2CCN(CCOC(c3ccccc3)c3ccccc3)CC2)C1c1cccc([N+](=O)[O-])c1.Cl (stereo not drawn) [Compound I6, 1,4-dihydro-2,6-dimethyl-4-(3-nitrophenyl)-3,5-pyridinecarboxylic acid methyl ester2-(N-4-(diphenylmethoxyethyl)piperazinyl)ethyl ester hydrochloride] |  |  |  |  |  |  | 9.3 ± 1.0% | 20.5 ± 2.5% | 33.7 ± 2.4% | 49.7 ± 3.5% | 66.9 ± 3.6% | 79.0 ± 4.5% |  |
| 0.2 µM | COC(=O)C1=C(C)NC(C)=C(C(=O)OCCN2CCN(CCOc3ccccc3OC)CC2)C1c1cccc([N+](=O)[O-])c1 (stereo not drawn) [Compound I14, 1,4-dihydro-2,6-dimethyl-4-(3-nitrophenyl)-3,5-pyridinecarboxylic acid methyl ester2-(N-4-(2-(2-methoxyphenoxy)ethyl)piperazinyl)ethyl ester hydrochloride] | 35.7 ± 3% | 62.9 ± 6.8% | 81.7 ± 3.3% | 96.2 ± 4.5% | 101 ± 3.4% |  |  |  |  |  |  |  | 27.4 ± 3.4% |
| 0.8 µM | COC(=O)C1=C(C)NC(C)=C(C(=O)OCCCN2CCN(CC(O)COc3ccccc3OC)CC2)C1c1cccc([N+](=O)[O-])c1.Cl (stereo not drawn) [II2, 1,4-dihydro-2,6-dimethyl-4-(3-nitrophenyl)-3,5-pyridinecarboxylic acid methyl ester3-(N-4-(3-(2-methoxyphenoxy)-2-hydroxpropyl)piperazinyl)propyl ester hydrochloride] |  |  |  |  |  |  | 11.0 ± 1.5% | 32.2 ± 3.0% | 50.7 ± 5.7% | 65.2 ± 4.2% | 93.4 ± 3.1% | 101.2 ± 3.2% |  |
